Patent US20210137858A1, “COMBINATION FORMULATION CONTAINING COLCHICINE FOR TREATMENT OR ENHANCING THE THERAPY OF LIVER DISEASE” (priority 2019, published 2021)

Columns and labels:
Assay type in all cases: in vivo, Wistar Rat
liver fibrosis by CCl4 = experiment: Hydroxyproline assay, CCl4 liver fibrosis, colchicine dose (Examples 1-2); settings: for Hydroxyproline: CCl4 0.4 g/kg rats
Description: (§1) Male Wistar Rat [about 150 g, 4 to 5-week old]
An administration plan of carbon tetrachloride (CCl4) and colchicine used in this experiment is as follows:
(1) Carbon tetrachloride: Intraperitoneal administration of 0.4 g/kg·bw, administered 3 times per week for 10 weeks • (2) Colchicine: Oral administration of 10, 50, 100 μg/kg·bw, once daily for 10 weeks
(§2) For this experiment, each group was classified as follows, and one group was used by 12 rats.
(3) CCl4-administered group [0.4 g/kg]
(4) CCl4+Colchicine [10 μg/kg]
(5) CCl4+Colchicine [50 μg/kg]
(6) CCl4+Colchicine [100 μg/kg]
The following items were measured to confirm the enhancement of the efficacy for treating liver fibrosis. Fibrosis index items were measured at 10 weeks.
(1) Fibrosis index item: hydroxyproline
Hydroxyproline assay was performed for each group to confirm the levels of […] accumulation in the liver.

[1] = test system: fibrin accumulation in the liver (CCl4); settings: DDB 25 mg/kg alone; CCl4 0.4 g/kg rats
Description: as §1
(§3) An administration plan of carbon tetrachloride (CCl4), silymarin, colchicine, and biphenyldimethyl dicarboxylate (DDB) used in this experiment is as follows:
(§4) (1) Carbon tetrachloride: Intraperitoneal administration of 0.4 g/kg·bw, administered 3 times per week for 10 weeks
(§5) (2) Silymarin: Oral administration of 10, 30, 50 mg/kg·bw, administered once a day for 10 weeks
(§6) (3) Colchicine: Oral administration of 10 μg/kg·bw, administered once a day for 10 weeks
(§7) (4) Biphenyldimethyl dicarboxylate (DDB): Oral administration of 10, 20, 25 mg/kg·bw, administered once a day for 10 weeks
(§8) (5) UDCA: Oral administration of 30 mg/kg·bw, administered once a day for 10 weeks
as §2
(§9) (4) CCl4+DDB [25 mg/kg] administered group
(§10) (5) CCl4+Colchicine [10 μg/kg]+DDB [25 mg/kg] administered group
(§11) (6) CCl4+Colchicine [10 μg/kg]+DDB [20 mg/kg] administered group
(§12) (7) CCl4+Colchicine [10 μg/kg]+DDB [10 mg/kg] administered group
(§13) (8) CCl4+Silymarin [50 mg/kg] administered group
(§14) (9) CCl4+Colchicine [10 μg/kg]+Silymarin [50 mg/kg] administered group
(§15) (10) CCl4+Colchicine [10 μg/kg]+Silymarin [30 mg/kg] administered group
(§16) (11) CCl4+Colchicine [10 μg/kg]+Silymarin [10 mg/kg] administered group
(12) CCl4+Colchicine [10 μg/kg]+UDCA [30 mg/kg] administered group […]

[2] = test system: liver damage caused by CCl4; experiment: Blood and serum levels (albumin, ALP, ALT, AST, total protein) in CCl4-administered rats (Examples 3, 4-1 to 4-3)
Description: as §1, §3, §4, §5, §6, §7, §8, §2, §9, §10, §11, §12, §13, §14, §15, §16
(12) CCl4+Colchicine [10 μg/kg]+UDCA [30 mg/kg] administered group
Serum items were measured at 4 weeks and 10 weeks, and histological items were measured at 10 weeks.
(1) Serum enzyme items: Albumin, total protein concentration, ALT, AST, ALP, etc.
(§17) At this time, the dose of colchicine administered was all the same at 10 μg/kg.
as §17, §17

[3] = test system: liver tissue of CCl4-administered rats; experiment: Liver histopathological examination (H&E staining) (Example 4-5); parameters: key to Fatty necrosis / Ballooning degeneration / Fatty change / Fibrosis: 0 point for no disease (NAD); 1 point for mild symptoms; 2 points for moderate symptoms; 3 points for severe symptoms; settings: DDB [25 mg] alone, 10 weeks
Description: as §1, §3, §4, §2
The following items were measured to confirm the enhancement of the efficacy for the treatment of liver disease (hepatitis, liver fibrosis, etc.). Serum items were measured at 4 weeks and 10 weeks, and histological items were measured at 10 weeks.
(2) Liver tissue Histology: H&E staining
In each group, when the pathological characteristics for fatty necrosis, ballooning, fatty change, and fibrosis may be identified according to severity of disease, it was evaluated by assigning 0 point for no disease (NAD), 1 point for mild symptoms, 2 points for moderate symptoms, and 3 points for severe symptoms.

[4] = DDB 25 mg/kg alone, CCl4 rats, serum

`COc1cc2c(c(OC)c1OC)-c1ccc(OC)c(=O)cc1[C@@H](NC(C)=O)CC2` [Colchicine, colchicine] was tested. Which Hydroxyproline (liver fibrosis by CCl4; colchicine 10 μg/kg oral once daily 10 weeks) did it give?
Its Hydroxyproline is 320.12 ± 13.32 μg/g of liver.

And the Hydroxyproline (liver fibrosis by CCl4; colchicine 50 μg/kg oral once daily 10 weeks)?
The Hydroxyproline was 313.33 ± 12.50 μg/g of liver.

What about the Hydroxyproline (liver fibrosis by CCl4; colchicine 100 μg/kg oral once daily 10 weeks) of the same molecule?
The Hydroxyproline was 302.25 ± 10.25 μg/g of liver.

And the “fibrin (hydroxyproline assay), in words” value (liver fibrosis by CCl4; colchicine-administered group vs CCl4, Table 1)?
The value was “significant reduction effect of fibrin”.

How did the Hydroxyproline [1] turn out when `COC(=O)c1cc(OC)c2c(c1-c1c(C(=O)OC)cc(OC)c3c1OCO3)OCO2` [DDB, biphenyldimethyl dicarboxylate] was run?
The Hydroxyproline was 317.74 ± 9.24 μg/g of liver.

And the ALP [2, 4]?
Its ALP is 1428.90 ± 681.53 U/L.

What about the ALT [2, 4] of the same molecule?
Its ALT is 1543.09 ± 408.03 U/L.

And the AST [2, 4]?
Its AST is 1642.24 ± 764.93 U/L.

And the Albumin [2, 4]?
The Albumin was 2.13 ± 0.09 g/dL.

What about the Total protein [2, 4] of the same molecule?
Its Total protein is 5.35 ± 0.28 g/dL.

And the “ALP (Alkaline phosphatase) level, in words” value ([2]; vs CCl4 administration, Tables 2 and 4)?
Its value is “the level was increased”.

And the “Albumin level, in words” value ([2]; vs level reduced by CCl4, Tables 2-4)?
Its value is “tended to be recovered”.

What about the “Total protein, in words” value ([2]; vs value reduced by CCl4, Tables 2-4) of the same molecule?
The value was “tended to be recovered”.

What about the Ballooning degeneration [3] of the same molecule?
The Ballooning degeneration was 3.

What about the Fatty change [3] of the same molecule?
The Fatty change was 1.

And the Fatty necrosis [3]?
The Fatty necrosis was 1.

What about the Fibrosis [3] of the same molecule?
The Fibrosis was 2.

And the “Total Score” value [3]?
The value was 7.
